The source of these data is patent US10577350B2, “Crystalline forms of (R)-N-((4-methoxy-6-methyl-2-oxo-1,2-dihydropyridin-3-yl)methyl)-2-methyl-1-(1-(1-(2,2,2-trifluoroethyl)piperidin-4-yl)ethyl)-1H-indole-3-carboxamide” (Constellation Pharmaceuticals, Inc., priority 2015, dated 2020).

The nature of series [1]: Aqueous solubility of solid forms (Table 2). The class given is physicochemical.
Series [2] can be described thus: DVS moisture sorption at 25° C. The class given is physicochemical. Conditions: for Post DVS changes: after DVS, PLM, XRD, DSC, TGA; for DVS final sample wt lower than starting wt: after one full sorption cycle. On the procedure: Moisture sorption profiles were generated isothermally at 25° C. using a Hiden IGAsorp moisture sorption analyzer. Samples were dried on the instrument under inert nitrogen at 40° C. for 60 min. Following drying the samples moisture sorption was determined by performing one full cycle of weight measurements at 0, 10, 20, 30, 40, 50, 60, 70, 80, 90 and 95% RH, with exposure time at each humidity set point dependent upon a minimum of 99% confidence in the F1 fit model or 15 min, with a maximum timeout of 120 min. The moisture sorption isotherms were plotted as a function of weight change (relative weight % of the dried starting weight) and % RH.

Series [3] in a line: Pharmacokinetics in rat after oral suspension. Format: in vivo, rats. To be noted: for Cmax / AUC(0-t): plasma; for AUC(0-t): read-out: AUC0-24 h. From the text: Compound 365 was formulated similarly to Form C, suspension in 0.5% methylcellulose, 0.1% Tween 80 in purified water.
Series [4] is described as follows: Pharmacokinetics in dog after oral suspension. Format: in vivo. Conditions: dogs (both genders), twice-daily oral; for Cmax / AUC(0-t): both sexes, dog, plasma, suspension in 0.5% methylcellulose; for AUC(0-t): read-out: AUC0-24 h. On the procedure: Doses levels ranging from 50 mg/kg to 500 mg/kg were permitted to achieve pharmacological relevant systemic exposures.

Series [5] in a line: Relative polymorph stability (statement). Format: physicochemical. To be noted: compared with the other forms.
The mark [6] stands for this setting: oral, rat, Table 8, formulated similarly to Form C (suspension in 0.5% methylcellulose, 0.1% Tween 80), 100 mg/kg/day.
[7] abbreviates: oral, rat, Table 8, formulated similarly to Form C (suspension in 0.5% methylcellulose, 0.1% Tween 80), 300 mg/kg/day.
Setting [8] is: both sexes, rat, rats (both genders), once-daily oral, suspension in 0.5% methylcellulose, 0.1% Tween 80, 100 mg/kg/day.
Setting [9] is: both sexes, rat, rats (both genders), once-daily oral, suspension in 0.5% methylcellulose, 0.1% Tween 80, 300 mg/kg/day.
Setting [10] is: both sexes, rat, rats (both genders), once-daily oral, suspension in 0.5% methylcellulose, 0.1% Tween 80, 600 mg/kg/day.

By Cmax is commonly meant the highest concentration seen after dosing. Take `COc1cc(C)[nH]c(=O)c1CNC(=O)c1c(C)n([C@H](C)C2CCN(CC(F)(F)F)CC2)c2ccccc12` [Amorphous, (R)—N-((4-methoxy-6-methyl-2-oxo-1,2-dihydropyridin-3-yl)methyl)-2-methyl-1-(1-(1-(2,2,2-trifluoroethyl)piperidin-4-yl)ethyl)-1H-indole-3-carboxamide]: the figures for the “Aqueous Solubility” value in series [1] (pH 1.2), in series [1] (pH 6.5) and in series [1] (pH 7.4) were “pH 1.2: ≥921 ug/mL”, “pH 6.5: 18 ug/mL” and “pH 7.4: 140 ug/mL”, respectively. For the same compound, the “Post DVS changes” value in series [2] is on record as “Amorphous”. Besides, the “DVS final sample wt lower than starting wt” value in series [2] is recorded as “same wt ~1%”. In series [2] (at 95% RH, 25° C.), this compound gave a DVS wt gain of 7.4% wt gain. The Cmax in series [3] (setting [6]) was 7160 ng/mL; in series [3] (setting [7]), 9810 ng/mL. The results for the AUC(0-t) in series [3] (setting [6]) and in series [3] (setting [7]) were 24200 ng·h/mL and 78400 ng·h/mL, respectively. For the same compound, in series [3] (rat, at both 100 and 300 mpk), the “Cmax and AUC compared with Form C” value was “slightly superior”.
By solubility is commonly meant the dissolved amount per volume that the medium holds. Read a high solubility as much dissolved substance. In series [1] (aqueous medium at pH 1.2 (buffer not named), pH 1.2, simulated gastric fluid, pH 1.2), `COc1cc(C)[nH]c(=O)c1CNC(=O)c1c(C)n([C@H](C)C2CCN(CC(F)(F)F)CC2)c2ccccc12` [Form A, (R)—N-((4-methoxy-6-methyl-2-oxo-1,2-dihydropyridin-3-yl)methyl)-2-methyl-1-(1-(1-(2,2,2-trifluoroethyl)piperidin-4-yl)ethyl)-1H-indole-3-carboxamide] had a solubility of at least 961 µg/mL. The “Aqueous Solubility” value was “pH 6.5: 31 ug/mL” in series [1] (pH 6.5) and “pH 7.4: 28 ug/mL” in series [1] (pH 7.4). Moreover, the “Post DVS changes” value in series [2] came out at 1% reduction. Besides, in series [2], the “DVS final sample wt lower than starting wt” value is “wt ~0.8 lower %”. The DVS wt gain in series [2] (at 80% RH, 25° C.) was determined as 2% wt gain at; in series [2] (at 95% RH, 25° C.), 5.3 wt gain at % wt.
As to `COc1cc(C)[nH]c(=O)c1CNC(=O)c1c(C)n([C@H](C)C2CCN(CC(F)(F)F)CC2)c2ccccc12` [Form B, (R)—N-((4-methoxy-6-methyl-2-oxo-1,2-dihydropyridin-3-yl)methyl)-2-methyl-1-(1-(1-(2,2,2-trifluoroethyl)piperidin-4-yl)ethyl)-1H-indole-3-carboxamide], the “Aqueous Solubility” value was “pH 1.2: ≥970 ug/mL” in series [1] (pH 1.2), “pH 6.5: 120 ug/mL” in series [1] (pH 6.5) and “pH 7.4: 112 ug/mL” in series [1] (pH 7.4). In series [2], the “Post DVS changes” value is “No significant”. The compound further displayed a DVS wt gain in series [2] (at 95% RH, 25° C.) of 7.2% wt gain.
With `COc1cc(C)[nH]c(=O)c1CNC(=O)c1c(C)n([C@H](C)C2CCN(CC(F)(F)F)CC2)c2ccccc12` [Form C, (R)—N-((4-methoxy-6-methyl-2-oxo-1,2-dihydropyridin-3-yl)methyl)-2-methyl-1-(1-(1-(2,2,2-trifluoroethyl)piperidin-4-yl)ethyl)-1H-indole-3-carboxamide], the “Aqueous Solubility” value was “pH 1.2: ≥913 ug/mL” in series [1] (pH 1.2), “pH 6.5: 14 ug/mL” in series [1] (pH 6.5) and “pH 7.4: 9 ug/mL” in series [1] (pH 7.4). Further, the DVS hygroscopicity result in series [2] (25° C.) is recorded as “Non-”. For the same compound, in series [2], the “Post DVS changes” value is given as “No significant”. Moreover, in series [2] (at 95% RH, 25° C.), the DVS wt gain is recorded as at most 2.3% wt. Further, the highest concentration (Cmax) in series [3] (setting [8]) was 6140 ng/mL; in series [3] (setting [9]), 12800 ng/mL; in series [3] (setting [10]), 56800 ng/mL; in series [4] (0.1% Tween 80, 50 mg/kg BID), 6600 ng/mL; in series [4] (0.1% Tween 80, 150 mg/kg BID) it was 21300 ng/mL; in series [4] (0.1% Tween 80, 500 mg/kg BID) it was 34200 ng/mL. Besides, the AUC(0-t) in series [3] (setting [8]) was found to be 19600 ng·h/mL; in series [3] (setting [9]), 86400 ng·h/mL; in series [3] (setting [10]), 128000 ng·h/mL; in series [4] (0.1% Tween 80, 50 mg/kg BID), 42.2 µg·h/mL; in series [4] (0.1% Tween 80, 150 mg/kg BID), 176 µg·h/mL; in series [4] (0.1% Tween 80, 500 mg/kg BID), 378 µg·h/mL. For the same compound, the “systemic exposure AUC(0-24), dependence on dose” value was “increased dose-proportionally” in series [3] (rats (both genders), once-daily oral, between 100 and 600 mg/kg); “increased mostly dose-proportionally” in series [4] (between 50 and 500 mg/kg BID). The polymorph stability result in series [5] is “the most stable polymorph”.
